Article PMC2818678 (Bioorganic & medicinal chemistry, 2009)
Blank lines part the entries; values can stand above or below the molecule they belong to.

Tests used:
[1] = target: human A2A adenosine receptor (hA2AAR) (Homo sapiens, UniProt P29274); conditions: at 10 μM; [3H]37; HEK293 cells expressing hA2AAR; ref Tosh et al.[9]; cited from earlier work
[2] = target: T1, human A1 adenosine receptor (hA1AR) (Homo sapiens, UniProt P30542); conditions: at 10 μM; [3H]36; CHO cells expressing hA1AR; ref Tosh et al.[9]; cited from earlier work
T1 sequence (P30542 1-326): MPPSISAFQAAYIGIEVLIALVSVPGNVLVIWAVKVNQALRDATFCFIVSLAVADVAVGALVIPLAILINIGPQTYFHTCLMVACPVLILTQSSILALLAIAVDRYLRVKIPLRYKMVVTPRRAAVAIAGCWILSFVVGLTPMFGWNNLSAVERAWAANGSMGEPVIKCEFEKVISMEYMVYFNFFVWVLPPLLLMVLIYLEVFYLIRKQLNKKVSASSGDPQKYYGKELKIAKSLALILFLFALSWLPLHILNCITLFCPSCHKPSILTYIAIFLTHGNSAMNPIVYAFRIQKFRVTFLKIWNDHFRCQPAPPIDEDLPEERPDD

[3] = target: T1, human A1 adenosine receptor (hA1AR); test: Radioligand binding at human A1AR; conditions: read-out: % inhibition of radioligand binding, A1
[4] = target: T2, human A3 adenosine receptor (hA3AR) (Homo sapiens, UniProt P0DMS8); test: Radioligand binding at human A3AR; conditions: for Affinity at the A3AR (in words): binding; for Selectivity for hA3AR in comparison to A1 and A2AARs (in words): inhibition curves, Figure 1
T2 sequence (P0DMS8 1-318): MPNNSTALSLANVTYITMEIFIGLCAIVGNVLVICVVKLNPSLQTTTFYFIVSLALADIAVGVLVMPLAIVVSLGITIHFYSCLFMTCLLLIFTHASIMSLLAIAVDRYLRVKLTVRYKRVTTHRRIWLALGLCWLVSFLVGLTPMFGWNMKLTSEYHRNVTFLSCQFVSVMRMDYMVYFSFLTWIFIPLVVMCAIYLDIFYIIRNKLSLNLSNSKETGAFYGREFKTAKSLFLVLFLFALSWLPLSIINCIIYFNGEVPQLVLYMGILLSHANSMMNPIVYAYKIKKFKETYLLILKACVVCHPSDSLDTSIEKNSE

[5] = target: T3, human A3AR (Homo sapiens, UniProt P0DMS8); test: Inhibition of forskolin-stimulated cAMP production in A3AR-expressing CHO cells; type: cell-based; conditions: inhibition of forskolin-stimulated cAMP at 10 μM, NECA as reference standard
T3 sequence (P0DMS8 1-318): T2 sequence (P0DMS8 1-318)

Chain of human A2A adenosine receptor (hA2AAR) (P29274 whole entry): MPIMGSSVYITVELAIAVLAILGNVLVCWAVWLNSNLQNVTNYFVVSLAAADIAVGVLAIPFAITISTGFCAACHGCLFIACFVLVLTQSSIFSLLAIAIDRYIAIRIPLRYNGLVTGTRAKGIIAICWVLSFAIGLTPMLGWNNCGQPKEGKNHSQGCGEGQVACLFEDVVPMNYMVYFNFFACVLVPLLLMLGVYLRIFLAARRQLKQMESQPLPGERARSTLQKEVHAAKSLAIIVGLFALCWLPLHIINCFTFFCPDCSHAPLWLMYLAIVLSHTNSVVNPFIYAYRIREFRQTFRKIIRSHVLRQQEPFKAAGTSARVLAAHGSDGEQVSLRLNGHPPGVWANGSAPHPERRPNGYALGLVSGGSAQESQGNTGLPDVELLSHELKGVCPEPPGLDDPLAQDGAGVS

SMILES: CNC(=O)[C@@]12C[C@@H]1[C@@H](n1cnc3c(NCc4cccc(Cl)c4)nc(C#CCCC(=O)NCCNC(=O)CCCCC4SCC5NC(=O)NC54)nc31)[C@H](O)[C@@H]2O (some centres unmarked) [Compound 2]
- % inhibition of radioligand binding, A2A [1]: (51±2%)
- % inhibition of radioligand binding, A1 [2]: (1±1%)

SMILES: CNC(=O)[C@@]12C[C@@H]1[C@@H](n1cnc3c(NCc4cccc(Cl)c4)nc(C#CCCCCc4cn(CCCCCCNC(=O)c5ccc(-c6c7ccc(=N)c(S(=O)(=O)O)c-7oc7c(S(=O)(=O)O)c(N)ccc67)c(C(=O)O)c5)nn4)nc31)[C@H](O)[C@@H]2O [Compound 23]
- inhibition at 10 µM [3]: 0%

SMILES: CNC(=O)[C@@]12C[C@@H]1[C@@H](n1cnc3c(NCc4cccc(Cl)c4)nc(C#CCCCCc4cn(Cc5ccc(-n6sccc6=O)cc5)nn4)nc31)[C@H](O)[C@@H]2O [Compound 19]
- Affinity at the A3AR (in words) [4]: only moderate affinity

SMILES: CCN1\C(=C/C=C/C=C/C2=[N+](CCCCCC(=O)NCCNC(=O)CCC#Cc3nc(NCc4cccc(Cl)c4)c4ncn([C@H]5[C@H](O)[C@H](O)[C@]6(C(=O)NC)C[C@H]56)c4n3)c3ccc(S(=O)(=O)[O-])cc3C2(C)C)C(C)(C)c2cc(S(=O)(=O)O)ccc21 [Compound 1]
- % inhibition of radioligand binding, A1 [2]: (36±3%)

SMILES: CNC(=O)[C@@]12C[C@@H]1[C@@H](n1cnc3c(NCc4cccc(Cl)c4)nc(C#CCCC(=O)NCCNC(=O)CCCCCNC(=O)CCCCC4SCC5NC(=O)NC54)nc31)[C@H](O)[C@@H]2O (some centres unmarked) [Compound 3]
- % inhibition of radioligand binding, A2A [1]: (47±11%)
- % inhibition of radioligand binding, A1 [2]: (12±4%)

SMILES: CNC(=O)[C@H]1O[C@@H](n2cnc3c(NCc4cccc(I)c4)ncnc32)[C@H](O)[C@@H]1O [IB-MECA, N^6-(3-iodobenzyl)-5′-N-methylcarboxamidoadenosine, reference compound]
- A3AR agonist efficacy (in words) [5]: full agonists

Second part, the molecule after the results:

- A3AR agonist efficacy (in words) [5]: highly efficacious agonists
- Fold more potent in A3AR binding than higher butyl homologue 17 ([4]; compared with 17): 4 fold
- Selectivity for hA3AR in comparison to A1 and A2AARs (in words) [4]: highly selective
SMILES: CNC(=O)[C@@]12C[C@@H]1[C@@H](n1cnc3c(NCc4cccc(Cl)c4)nc(C#CCCCCc4cn(CCNC(C)=O)nn4)nc31)[C@H](O)[C@@H]2O [Compound 15, (1S,2R,3S,4R,5S)-6-(3-Chlorobenzylamino)-(2-(6-(1-(4-acetamidoethyl)-1H-1,2,3-triazol-4-yl)hex-1-ynyl)-9H-purin-9-yl)-2′,3′-dihydroxybicyclo[3.1.0]hexane-1′-carboxylic acid N-methylamide]

- Affinity at the A3AR (in words) [4]: only moderate affinity
SMILES: CNC(=O)[C@@]12C[C@@H]1[C@@H](n1cnc3c(NCc4cccc(Cl)c4)nc(C#CCCCCc4cn(CCCCN)nn4)nc31)[C@H](O)[C@@H]2O [Compound 16, (1S,2R,3S,4R,5S)-6-(3-Chlorobenzylamino)-(2-(6-(1-(4-aminobutyl)-1H-1,2,3-triazol-4-yl)hex-1-ynyl)-9H-purin-9-yl)-2′,3′-dihydroxybicyclo[3.1.0]hexane-1′-carboxylic acid N-methylamide]

- A3AR agonist efficacy (in words) [5]: partial agonist
- Selectivity for hA3AR in comparison to A1 and A2AARs (in words) [4]: highly selective
SMILES: CNC(=O)[C@@]12C[C@@H]1[C@@H](n1cnc3c(NCc4cccc(Cl)c4)nc(C#CCCCCc4cn(C56CC7CC(CC(C7)C5)C6)nn4)nc31)[C@H](O)[C@@H]2O [Compound 18, (1S,2R,3S,4R,5S)-6-(3-Chlorobenzylamino)-(2-(6-(1-(adamantyl)-1H-1,2,3-triazol-4-yl)hex-1-ynyl)-9H-purin-9-yl)-2′,3′-dihydroxybicyclo[3.1.0]hexane-1′-carboxylic acid N-methylamide]
